The compounds below were run on RSV strain A2 (assay: RSV antiviral cytoprotection assay in Hep2 cells (RSV-induced cytopathic effect, Cell TiterGlo)). Settings: human respiratory syncytial virus, HEp-2, 0.5 μM compound; RSV A2-infected Hep2 cells; % inhibition calculated from 4-parameter dose response curve, normalized to 0% and 100%; read-out: Percent inhibition at 0.5 μM.
Format: cell-based, Respiratory Syncytial Virus (RSV)
Protocol: Antiviral activity against RSV was determined using an in vitro cytoprotection assay in Hep2 cells. […] The method used was similar to methods previously described in published literature (Chapman et al., Antimicrob Agents Chemother. 2007, 51(9):3346-53.)
Hep2 cells were obtained from ATCC (Manassas, VI) and maintained in MEM media supplemented with 10% fetal bovine serum and penicillin/streptomycin. Cells were passaged twice a week and kept at subconfluent stage. Commercial stock of RSV strain A2 (Advanced Biotechnologies, Columbia, Md.) was titered before compound testing to determine the appropriate dilution of the virus stock that generated desirable cytopathic effect in Hep2 cells.
For antiviral tests, Hep2 cells were seeded into 96-well plates 24 hours before the assay at a density of 3,000 cells/well. On a separate 96 well plate, compounds to be tested were serially diluted in cell culture media. Eight concentrations in 3-fold serial dilution increments were prepared for each tested compound and 100 uL/well of each dilution was transferred in duplicate onto plates with seeded Hep2 cells. Subsequently, appropriate dilution of virus stock previously determined by titration was prepared in cell culture media and 100 uL/well was added to test plates containing cells and serially diluted compounds. Each plate included three wells of infected untreated cells and three wells of uninfected cells that served as 0% and 100% virus inhibition control, respectively. Following the infection with RSV, testing plates were incubated for 4 days in a tissue culture incubator. After the incubation, RSV-induced cytopathic effect was determined using a Cell TiterGlo reagent (Promega, Madison, Wis.) followed by a luminescence read-out. The percentage inhibition was calculated for each tested concentration relative to the 0% and 100% inhibition controls and the EC50 value for each compound was determined by non-linear regression as a concentration inhibiting the RSV-induced cytopathic effect by 50%. Ribavirin (purchased from Sigma, St. Louis, Mo.) was used as a positive control for antiviral activity.
Compounds were also tested for antiviral activity against RSV in Hep2 cells using a 384 well format. Compounds were diluted in DMSO using a 10-step serial dilution in 3-fold increments via automation in 4 adjacent replicates each. Eight compounds were tested per dilution plate. 0.4 uL of diluted compounds were then stamped via Biomek into 384-well plates (Nunc 142761 or 164730 w/lid 264616) containing 20 μL of media (Mediatech Inc. MEM supplemented with Glutamine, 10% FBS and Pen/Strep). DMSO and a suitable positive control compound, such as 80 μM GS-329467 or 10 μM 427346 was used for the 100% and 0% cell killing controls, respectively.
Hep2 cells (1.0×10^5 cells/ml) were prepared as above in batch to at least 40 mls excess of the number of sample plates (8 mls cell mix per plate) and infected with vendor supplied (ABI) RSV strain A2 to arrive at an MOI of 1:1000 (virus:cell #) or 1:3000 (vol virus: cell vol). Immediately after addition of virus, the RSV infected Hep2 cell suspension was added to each stamped 384-well plate at 20 μl per well using a uFlow dispenser, giving a final volume of 40 μL/well, each with 2000 infected cells. The plates were then incubated for 5 days at 37° C. and 5% CO2. Following incubation, the plates were equilibrated to room temperature in a biosafety cabinet hood for 1.5 hrs and 40 μL of Cell-Titer Glo viability reagent (Promega) was added to each well via uFlow. Following a10-20 minute incubation, the plates were read using an EnVision or Victor Luminescence plate reader (Perkin-Elmer). The data was then uploaded and analyzed on the Bioinformatics portal under the RSV Cell Infectivity and 8-plate EC50-Hep2-384 or 8-plate EC50-Hep2-Envision protocols. […]

Row | SMILES | inhibition at 0.5 µM
1 | Cc1cn2nc([C@@H]3CCCCN3C(=O)c3cccc(F)c3C)cc2nc1N1CC[C@H](N)C1 [Compound 25] | 100%
2 | Cc1cn2nc([C@@H]3CCCCN3C(=O)c3ccc(F)cn3)cc2nc1N1CC[C@H](N)C1 [Compound 26] | 84%
3 | COc1ccccc1C(=O)N1CCCC[C@H]1c1cc2nc(N3CC[C@H](N)C3)c(C)cn2n1 [Compound 27] | 100%
4 | Cc1cn2nc([C@@H]3CCCCN3C(=O)c3cc(F)c(F)c(Cl)c3F)cc2nc1N1CC[C@H](N)C1 [Compound 28] | 100%
5 | COc1ccc(S(N)(=O)=O)cc1C(=O)N1CCCC[C@H]1c1cc2nc(N3CC[C@H](N)C3)c(C)cn2n1 [Compound 29] | 71%
6 | Cc1cn2nc([C@@H]3CCCCN3C(=O)c3cccc(F)c3Cl)cc2nc1N1CC[C@H](N)C1 [Compound 30] | 100%
7 | Cc1cn2nc([C@@H]3CCCCN3C(=O)c3cccc4c3CCCC4)cc2nc1N1CC[C@H](N)C1 [Compound 31] | 100%
8 | Cc1cn2nc([C@@H]3CCCCN3C(=O)c3ccc(C#N)cc3F)cc2nc1N1CC[C@H](N)C1 [Compound 32] | 79%
9 | Cc1cn2nc([C@@H]3CCCCN3C(=O)c3ccc(C)c(F)c3F)cc2nc1N1CC[C@H](N)C1 [Compound 33] | 99%
10 | COc1ccc(C(C)(C)C)cc1C(=O)N1CCCC[C@H]1c1cc2nc(N3CC[C@H](N)C3)c(C)cn2n1 [Compound 34] | 13%
11 | Cc1ccc(C(F)(F)F)c(C(=O)N2CCCC[C@H]2c2cc3nc(N4CC[C@H](N)C4)c(C)cn3n2)c1 [Compound 35] | 100%
12 | Cc1ccc(C(=O)N2CCCC[C@H]2c2cc3nc(N4CC[C@H](N)C4)c(C)cn3n2)c(C(F)(F)F)c1 [Compound 36] | 98%
13 | Cc1cn2nc([C@@H]3CCCCN3C(=O)c3cc(F)ccc3OC(F)(F)F)cc2nc1N1CC[C@H](N)C1 [Compound 37] | 100%
14 | Cc1cn2nc([C@@H]3CCCCN3C(=O)c3cccc4cn[nH]c34)cc2nc1N1CC[C@H](N)C1 [Compound 38] | 100%
15 | Cc1cn2nc([C@@H]3CCCCN3C(=O)c3c(F)ccc(C)c3F)cc2nc1N1CC[C@H](N)C1 [Compound 39] | 100%
16 | Cc1cn2nc([C@@H]3CCCCN3C(=O)c3ccc4cnccc4n3)cc2nc1N1CC[C@H](N)C1 [Compound 41] | 4%
17 | Cc1cn2nc([C@@H]3CCCCN3C(=O)c3ccc(-c4ccccc4)cn3)cc2nc1N1CC[C@H](N)C1 [Compound 42] | 9%
18 | Cc1cn2nc([C@@H]3CCCCN3C(=O)c3cccc4[nH]cnc34)cc2nc1N1CC[C@H](N)C1 [Compound 43] | 88%
19 | Cc1cn2nc([C@@H]3CCCCN3C(=O)c3cccc(F)c3C(F)(F)F)cc2nc1N1CC[C@H](N)C1 [Compound 44] | 100%
20 | Cc1cn2nc([C@@H]3CCCCN3C(=O)c3ccccc3S(N)(=O)=O)cc2nc1N1CC[C@H](N)C1 [Compound 45] | 45%
21 | Cc1cn2nc([C@@H]3CCCCN3C(=O)c3cccc4ccncc34)cc2nc1N1CC[C@H](N)C1 [Compound 46] | 100%
22 | Cc1noc(-c2ccccc2C(=O)N2CCCC[C@H]2c2cc3nc(N4CC[C@H](N)C4)c(C)cn3n2)n1 [Compound 47] | 90%
23 | Cc1cn2nc([C@@H]3CCCCN3C(=O)c3cc(F)cc4c3OCOC4)cc2nc1N1CC[C@H](N)C1 [Compound 48] | 100%
24 | Cc1ccc(C(=O)N2CCCC[C@H]2c2cc3nc(N4CC[C@H](N)C4)c(C)cn3n2)c(Cl)c1 [Compound 49] | 99%
25 | Cc1cn2nc([C@@H]3CCCCN3C(=O)c3ccc4cccnc4n3)cc2nc1N1CC[C@H](N)C1 [Compound 50] | 15%
26 | COc1cc2c(cc1C(=O)N1CCCC[C@H]1c1cc3nc(N4CC[C@H](N)C4)c(C)cn3n1)CCC2 [Compound 51] | 100%
27 | Cc1cn2nc([C@@H]3CCCCN3C(=O)c3ccc4cccc(F)c4n3)cc2nc1N1CC[C@H](N)C1 [Compound 52] | 71%
